Test results taken from patent US10118935B2, “Melampomagnolide B dimers” (priority 2014, dated 2018).

Columns and labels:
OVCAR-4 = test: NCI 60 cell line five dose, Ovarian Cancer
SNB-75 = test: NCI 60 cell line five dose, CNS Cancer
SR = test: NCI 60 cell line five dose, Leukemia
NCI-H226 = test: NCI 60 cell line five dose, Non-Small Cell Lung Cancer
MDA-MB-435 = test: NCI 60 cell line five dose, Melanoma
HS 578T = test: NCI 60 cell line five dose, Breast Cancer; conditions: HS 578T
LOX IMVI = test: NCI 60 cell line five dose, Melanoma
CAKI-1 = test: NCI 60 cell line five dose, Renal Cancer
PC-3 = test: NCI 60 cell line five dose, Prostate Cancer
T-47D = test: NCI 60 cell line five dose, Breast Cancer
M9ENL AML cell lines = conditions: 10 μM; M9ENL cell line; FIG. 4
ACHN = test: NCI 60 cell line five dose, Renal Cancer
UACC-257 = test: NCI 60 cell line five dose, Melanoma
A498 = test: NCI 60 cell line five dose, Renal Cancer
HT29 = test: NCI 60 cell line five dose, Colon Cancer
A549/ATCC = test: NCI 60 cell line five dose, Non-Small Cell Lung Cancer
[1] = test system: panel of 60 human cancer cell lines; test: Five-dose growth inhibition, panel; type: cell-based
CCRF-CEM = test: NCI 60 cell line five dose, Leukemia
MOLT-4 = test: NCI 60 cell line five dose, Leukemia
NCI-H460 = test: NCI 60 cell line five dose, Non-Small Cell Lung Cancer
SK-MEL-5 = test: NCI 60 cell line five dose, Melanoma; conditions: SK-MEL-5
SK-MEL-2 = test: NCI 60 cell line five dose, Melanoma
MCF7 = test: NCI 60 cell line five dose, Breast Cancer

Compound: C=C1C(=O)O[C@H]2[C@H]1CC/C(COC(=O)CCC(=O)NCCCCCCCCCNC(=O)CCC(=O)OC/C1=C/CC[C@@]3(C)O[C@H]3[C@H]3OC(=O)C(=C)[C@@H]3CC1)=C\CC[C@@]1(C)O[C@@H]21 [JVM 2-92, bis(((1aR,7aS,10aS,10bS,E)-1a-Methyl-8-methylene-9-oxo-1a,2,3,6,7,7a,8,9,10a,10b-decahydrooxireno[2′,3′:9,10]cyclodeca[1,2-b]furan-5-yl)methyl)4,4′-(nonane-1,9-diylbis(azanediyl))bis (4-oxobutanoate)]
- GI50 (OVCAR-4): 1480 nM
- TGI (OVCAR-4): 3460 nM
- GI50 (SNB-75): 1470 nM
- TGI (SNB-75): 4350 nM
- GI50 (SR): 330 nM
- TGI (SR): 1170 nM
- GI50 (NCI-H226): 1900 nM
- TGI (NCI-H226): 4050 nM
- GI50 (MDA-MB-435): 1630 nM
- TGI (MDA-MB-435): 3440 nM
- GI50 (HS 578T): 2990 nM
- TGI (HS 578T): 24900 nM
- GI50 (LOX IMVI): 370 nM
- TGI (LOX IMVI): 1360 nM
- GI50 (CAKI-1): 10500 nM
- TGI (CAKI-1): 22800 nM
- GI50 (PC-3): 2530 nM
- TGI (PC-3): 7310 nM
- GI50 (T-47D): 1490 nM
- TGI (T-47D): 4480 nM
- CC50 (NCI-H322M): 61300 nM
- result compared to parthenolide (M9ENL AML cell lines): promising result
- GI50 (ACHN): 2100 nM
- TGI (ACHN): 5160 nM
- GI50 (UACC-257): 2060 nM
- TGI (UACC-257): 5590 nM
- GI50 (A498): 2720 nM
- TGI (A498): 8300 nM
- GI50 (HT29): 1330 nM
- TGI (HT29): 2750 nM
- GI50 (A549/ATCC): 13800 nM
- TGI (A549/ATCC): 33700 nM
- growth inhibition ([1]; NCI-H522, SW-620, LOX IMVI, MCF7, BT-549, MDA-MB-468): nano-molar range
- growth inhibition ([1]; all hematological leukemia cell lines): nanomolar range
- GI50 (CCRF-CEM): 280 nM
- TGI (CCRF-CEM): 1000 nM
- GI50 (MOLT-4): 640 nM
- TGI (MOLT-4): 4200 nM
- GI50 (NCI-H460): 2180 nM
- TGI (NCI-H460): 5170 nM
- GI50 (SK-MEL-5): 1880 nM
- TGI (SK-MEL-5): 4190 nM
- GI50 (SK-MEL-2): 2120 nM
- TGI (SK-MEL-2): 4150 nM
- GI50 (MCF7): 420 nM
- TGI (MCF7): 1850 nM
